Assay results published in US20250146039A1, “Terpene Glycoside Derivatives and Uses Thereof” (Firmenich SA, priority 2018, published 2025).

System: panel of taste experts
Experiment: taste evaluation of purified compounds in a water base
Assay type: in vivo
Conditions: 500 ppm in a water base
Procedure: A composition comprising the at least one glucosylated terpene glucosides was generated according to the methods described in the preceding examples. The compounds were dissolved in water (alternatively, the compounds could also be combined into a 2% (w/w) or 4% (w/w) sucrose solution or 7% (w/w) inverted sugar plus 0.15% citric acid (w/w) solution), wherein the final concentration of the composition in solution may range from 1 to 1000 ppm. A panel of taste experts evaluated the solutions.

| SMILES | taste perceived | times sweeter than sucrose |
| --- | --- | --- |
| C=C1C[C@@]23CC[C@H]4[C@@](C)(CCC[C@@]4(C)C(=O)O[C@@H]4OC(CO[C@H]5OC(CO)[C@@H](O)C(O)C5O)[C@@H](O)C(O)C4O)[C@@H]2CC[C@]1(O[C@@H]1OC(CO)[C@@H](O)C(O[C@@H]2OC(CO)[C@@H](O)C(O)C2O)C1O[C@@H]1OC(CO)[C@@H](O)C(O)C1O)C3 (stereo partly drawn) [compound of formula III, Mono α-1,6-glucosylated Rebaudioside A] | strong sweet taste | 200-300 times |
| C=C1C[C@@]23CC[C@H]4[C@@](C)(CCC[C@@]4(C)C(=O)O[C@@H]4OC(CO)[C@@H](O)C(O)C4O)[C@@H]2CC[C@]1(O[C@@H]1OC(CO)[C@@H](O)C(O[C@@H]2OC(CO[C@H]4OC(CO)[C@@H](O)C(O)C4O)[C@@H](O)C(O)C2O)C1O[C@@H]1OC(CO)[C@@H](O)C(O)C1O)C3 (stereo partly shown) [compound of formula VIII] | strong sweet taste | 200-300 times |
